In PubChem BioAssay AID330 (DTP/NCI, 2004):
Values joined by “and” are separate entries in the source; they are usually repeats but may differ in a detail not shown here. Equal entries are not always repeated. Toxic doses and inconclusive results are not listed.

Test system: P388 leukemia ip, CD2F1 mice, survival T/C
Assay: NCI In Vivo Anticancer Drug Screen. Data for tumor model P388 Leukemia (intraperitoneal) in CD2F1 (CDF1) mice
Details: endpoint: median survival time, higher = longer survival
Method in brief: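 Mice carrying the transplanted tumor received test compound or vehicle. Survival was recorded in each group, and the value is the treated-group measurement divided by that of the vehicle-treated control group.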

[1] = dose: 25.0 mg/kg/injection, schedule: Q01DX005 (ip), vehicle: Klucel (hydroxypropylcellulose) (HPC)
[2] = dose: 50.0 mg/kg/injection, schedule: Q01DX005 (ip), vehicle: Klucel (hydroxypropylcellulose) (HPC)
[3] = dose: 100.0 mg/kg/injection, schedule: Q01DX005 (ip), vehicle: Klucel (hydroxypropylcellulose) (HPC)
[4] = dose: 200.0 mg/kg/injection, schedule: Q01DX005 (ip), vehicle: Klucel (hydroxypropylcellulose) (HPC)
[5] = dose: 60.0 mg/kg/injection, schedule: Q01DX005 (ip), vehicle: saline with Tween-80
[6] = dose: 120.0 mg/kg/injection, schedule: Q01DX005 (ip), vehicle: saline with Tween-80
[7] = dose: 240.0 mg/kg/injection, schedule: Q01DX005 (ip), vehicle: saline with Tween-80
[8] = dose: 100.0 mg/kg/injection, schedule: Q04DX003 (ip), vehicle: saline with Tween-80
[9] = dose: 50.0 mg/kg/injection, schedule: Q01DX009 (ip), vehicle: saline with Tween-80
[10] = dose: 100.0 mg/kg/injection, schedule: Q01DX009 (ip), vehicle: saline with Tween-80
[11] = dose: 200.0 mg/kg/injection, schedule: Q01DX009 (ip), vehicle: saline with Tween-80
[12] = dose: 50.0 mg/kg/injection, schedule: Q01DX009 (ip), vehicle: Klucel (hydroxypropylcellulose) (HPC)
[13] = dose: 100.0 mg/kg/injection, schedule: Q01DX009 (ip), vehicle: Klucel (hydroxypropylcellulose) (HPC)
[14] = dose: 200.0 mg/kg/injection, schedule: Q01DX009 (ip), vehicle: Klucel (hydroxypropylcellulose) (HPC)

For COC(C(=O)C(O)C(C)O)C1Cc2cc3cc(OC4CC(OC(C)=O)C(OC5CC(O)C(OC)C(C)O5)C(C)O4)cc(O)c3c(O)c2C(=O)C1OC1CC(OC2CC(OC3CC(C)(O)C(OC(=O)C(C)C)C(C)O3)C(O)C(C)O2)C(O)C(C)O1 (centres undefined), the T/C (dose: 0.02 mg/kg/injection, schedule: Q01DX010 (ip), vehicle: saline) was 100 % of control, the T/C (dose: 0.05 mg/kg/injection, schedule: Q01DX010 (ip), vehicle: saline) was 100 % of control and the T/C (dose: 0.2 mg/kg/injection, schedule: Q01DX009 (ip), vehicle: saline) was 183 % of control. The T/C (dose: 0.4 mg/kg/injection, schedule: Q01DX009 (ip), vehicle: saline) was 122 % of control and the T/C (dose: 3.2 mg/kg/injection, schedule: Q01DX010 (ip), vehicle: saline) was 90 % of control.
With CC1=CC(C)(C)N=C2SC(COc3ccccc3)=NN12 the T/C [1] was 116 % of control, the T/C [2] was 109 % of control and the T/C [3] was 107 % of control. The T/C [4] was 104 % of control.
Cc1nc2ccccc2[se]1 was tested, and the T/C [5] was 100 % of control, the T/C [6] was 92 % of control and the T/C [7] was 96 % of control.
COc1ccccc1Cc1c(OC)cc(OC)c(C(=O)CCc2ccccc2)c1O was tested, and the T/C (dose: 3.2 mg/kg/injection, schedule: Q01DX009 (ip), vehicle: other) was 100 % of control, the T/C (dose: 4.3 mg/kg/injection, schedule: Q01DX009 (ip), vehicle: other) was 110 % of control and the T/C (dose: 6.4 mg/kg/injection, schedule: Q01DX009 (ip), vehicle: other) was 100 % of control and 105 % of control. The T/C (dose: 9.6 mg/kg/injection, schedule: Q01DX009 (ip), vehicle: other) was 114 % of control and 97 % of control, the T/C (dose: 14.0 mg/kg/injection, schedule: Q01DX009 (ip), vehicle: other) was 89 % of control and the T/C (dose: 28.0 mg/kg/injection, schedule: Q01DX009 (ip), vehicle: other) was 91 % of control.
In the case of COC(=O)N1c2ccccc2C=C(NC(C)=O)C1C#N (centres undefined), the T/C [8] is reported as 90 % of control, the T/C (dose: 200.0 mg/kg/injection, schedule: Q04DX003 (ip), vehicle: saline with Tween-80) is reported as 100 % of control and the T/C (dose: 400.0 mg/kg/injection, schedule: Q04DX003 (ip), vehicle: saline with Tween-80) is reported as 100 % of control.
CC1=CC(=C2C=CC(=[N+](C)C)C=C2)C=C(C)S1 was tested, and the T/C (dose: 3.12 mg/kg/injection, schedule: Q01DX009 (ip), vehicle: distilled water + Tween-80 + alcohol) was 109 % of control, the T/C (dose: 6.25 mg/kg/injection, schedule: Q01DX009 (ip), vehicle: distilled water + Tween-80 + alcohol) was 119 % of control and the T/C (dose: 12.5 mg/kg/injection, schedule: Q01DX009 (ip), vehicle: distilled water + Tween-80 + alcohol) was 120 % of control.
For Cc1ccc(N=C2N=C(Nc3ccc(C)cn3)c3ccccc32)nc1, the T/C [9] was 92 % of control, the T/C [10] was 91 % of control and the T/C [11] was 96 % of control.
With O=NNc1ccc(S(=O)(=O)c2ccc3ccccc3c2)cn1 the T/C (dose: 3.12 mg/kg/injection, schedule: Q01DX009 (ip), vehicle: water) was 120 % of control, the T/C (dose: 6.25 mg/kg/injection, schedule: Q01DX009 (ip), vehicle: water) was 115 % of control and the T/C (dose: 12.5 mg/kg/injection, schedule: Q01DX009 (ip), vehicle: water) was 116 % of control. For the same compound, the T/C (dose: 25.0 mg/kg/injection, schedule: Q01DX009 (ip), vehicle: water) was 109 % of control.
CC(C)N1CC(CCO)C(c2ccccc2)(c2ccccc2)C1 (centres undefined) was tested, and the T/C [12] was 99 % of control, the T/C [13] was 97 % of control and the T/C [14] was 106 % of control.
With CC(=O)Oc1ccc(OC(C)=O)c2c1CC=CC2 the T/C [2] was 105 % of control, the T/C [3] was 105 % of control and the T/C [4] was 100 % of control.
For CCCCCCCCCCCCN1CN=C(N)N(C#N)C1, the T/C (dose: 100.0 mg/kg/injection, schedule: Q04DX002 (ip), vehicle: saline with Tween-80) was 92 % of control, the T/C (dose: 200.0 mg/kg/injection, schedule: Q04DX002 (ip), vehicle: saline with Tween-80) was 99 % of control and the T/C (dose: 400.0 mg/kg/injection, schedule: Q04DX002 (ip), vehicle: saline with Tween-80) was 90 % of control.
In the case of [Se]=P(N1CC1)(N1CC1)N1CC1, the T/C (dose: 13.75 mg/kg/injection, schedule: Q01DX001 (ip), vehicle: Klucel (hydroxypropylcellulose) (HPC)) is reported as 119 % of control and the T/C (dose: 27.5 mg/kg/injection, schedule: Q01DX001 (ip), vehicle: Klucel (hydroxypropylcellulose) (HPC)) is reported as 155 % of control.
In the case of CC/C(=N/NS(=O)(=O)c1ccc(C)cc1)C(=O)O, the T/C [1] is reported as 90 % of control, the T/C [2] is reported as 92 % of control and the T/C [3] is reported as 92 % of control. For the same compound, the T/C [4] was 91 % of control and the T/C (dose: 400.0 mg/kg/injection, schedule: Q01DX005 (ip), vehicle: Klucel (hydroxypropylcellulose) (HPC)) was 88 % of control.
In the case of O=C1OCCOCCOCCOCCOC1=O, the T/C (dose: 100.0 mg/kg/injection, schedule: Q04DX003 (ip), vehicle: saline) is reported as 96 % of control, the T/C (dose: 200.0 mg/kg/injection, schedule: Q04DX003 (ip), vehicle: saline) is reported as 101 % of control and the T/C (dose: 400.0 mg/kg/injection, schedule: Q04DX003 (ip), vehicle: saline) is reported as 104 % of control.
COc1n[n+]([O-])c(Cl)cc1[N+](=O)[O-] was tested, and the T/C (dose: 12.5 mg/kg/injection, schedule: Q01DX009 (ip), vehicle: saline with Tween-80) was 109 % of control, the T/C (dose: 25.0 mg/kg/injection, schedule: Q01DX009 (ip), vehicle: saline with Tween-80) was 108 % of control and the T/C [9] was 117 % of control. For the same compound, the T/C [10] was 113 % of control.
Cc1cc(NS(=O)(=O)c2ccc(NCc3c4ccccc4nc4cc(Cl)ccc34)cc2)no1 was tested, and the T/C [5] was 94 % of control, the T/C [6] was 94 % of control and the T/C [7] was 94 % of control.
In the case of COc1ccc2c(c1)CN(C)c1ccc(OC)cc1CN2C, the T/C [5] is reported as 100 % of control, the T/C [6] is reported as 104 % of control and the T/C [7] is reported as 100 % of control.
For ClCC(CCl)(CCl)CCl, the T/C (dose: 50.0 mg/kg/injection, schedule: Q04DX003 (ip), vehicle: saline with Tween-80) was 105 % of control and the T/C [8] was 98 % of control.
In the case of O=C1NN=C2CCCCCCCCCCC12 (centres undefined), the T/C [9] is reported as 96 % of control, the T/C [10] is reported as 89 % of control and the T/C [11] is reported as 89 % of control.
COC(=O)C1(Br)CCC1(Br)C(=O)OC (centres undefined) was tested, and the T/C [12] was 100 % of control, the T/C [13] was 109 % of control and the T/C [14] was 103 % of control. For the same compound, the T/C (dose: 400.0 mg/kg/injection, schedule: Q01DX009 (ip), vehicle: Klucel (hydroxypropylcellulose) (HPC)) was 94 % of control.
